The values below come from patent US10117431B2, “Compounds and methods for improving plant performance” (Los Alamos National Security, LLC, priority 2013, dated 2018).

Assay type in all cases: in vivo
Assay [1] relates to Alfalfa (variety Ladak) seeds. Kind of assay: Germination of treated alfalfa seeds on moist paper toweling. To be noted: 3 days after initiation of germination, 65-75° F., control untreated 80%. As to the method: The desired treatment concentration of ketosuccinamate was added to an aqueous solution of 0.01% Tween 80 and the pH was set to neutral with KOH. The seeds were dipped in the solution to wet them and allowed to air dry before planting, a process that required less than 15 min. Alfalfa (variety Ladak) 3 days after initiation of germination on moist paper toweling at 65-75° F. the following percent germination was observed. Control untreated seeds: 80%, seeds treated with 0.1 mM ketosuccinamate: 88% and seeds treated with 1 mM ketosuccinamate: 93%. At least 30 seeds were used in each set.

Assay [2] concerns Soybean (variety Viking) seeds. Kind of assay: Germination of treated soybean seeds on moist paper toweling. To be noted: 10 mM seed treatment, 75-85° F. As to the method: The desired treatment concentration of ketosuccinamate was added to an aqueous solution of 0.01% Tween 80 and the pH was set to neutral with KOH. The seeds were dipped in the solution to wet them and allowed to air dry before planting, a process that required less than 15 min. Soybean (variety Viking) 22 hr after treatment and initiation of germination on moist paper toweling at 75-85° F. the following germination was observed. 2 of the 20 controls had broken through the pericarp whereas 9 of the 20 ketosuccinamate (10 mM) treated seeds had broken through the pericarp. 24 hours after treatment 6 of the 20 controls had broken the pericarp and 12 of the 20 ketosuccinamate-treated seeds had broken the pericarp.

Assay [3] relates to Soybeans (Variety Viking). In words: Greenhouse seedling emergence, soybean. To be noted: 1 mM seed treatment, 3 days after planting, controls 12 of 20. As to the method: The desired treatment concentration of ketosuccinamate was added to an aqueous solution of 0.01% Tween 80 and the pH was set to neutral with KOH. The seeds were dipped in the solution to wet them and allowed to air dry before planting, a process that required less than 15 min. Seeds were planted in vermiculite, sand, peat moss (1:1:1) in the greenhouse and the seedling emergence was tracked. The moisture in the germination/growth substrate as maintained between 15-20% of saturation. The temperature in the house ranged from 72-82° F. Bradyrhizobium japonicum (commercial innoculum) was mixed into the substrate before planting. 3 days after planting the following seedling emergence was observed. Controls 12 of 20 had emerged from the soil. Ketosuccinamate (1 mM) treated 16 of 20 had emerged.

The next assay relates to Alfalfa (Variety Ladak). In words: Greenhouse seedling emergence, alfalfa. To be noted: 1 mM seed treatment, 3 days after planting, control 58%. As for the experimental part:
The desired treatment concentration of ketosuccinamate was added to an aqueous solution of 0.01% Tween 80 and the pH was set to neutral with KOH. The seeds were dipped in the solution to wet them and allowed to air dry before planting, a process that required less than 15 min. Seeds were planted in vermiculite, sand, peat moss (1:1:2) in the greenhouse and the seedling emergence was tracked. The temperature in the house ranged from 72-82° F. Sinorhizobium meliloti inoculum (commercial innoculum) was mixed into the substrate before planting. 3 days after planting, the following seedling emergence was observed. Control 58%; Ketosuccinamate (1 mM) treated 79%.

As for `NC(=O)CC(=O)C(=O)O` [ketosuccinamate, 4-amino-2,4-dioxobutanoic acid], the percent germination in assay [1] (seeds treated with 0.1 mM) is given as 88%; in assay [1] (seeds treated with 1 mM), 93%. Also, in assay [2] (22 hr after treatment, controls 2 of the 20), the “number of the 20 treated seeds that had broken through the pericarp” value is 9. Moreover, the “number of the 20 treated seeds that had broken the pericarp” value in assay [2] (24 hours after treatment, controls 6 of the 20) was found to be 12. Moreover, the “seedling emergence, number of 20 that had emerged from the soil” value in assay [3] was found to be 16. Moreover, in the assay with Alfalfa (Variety Ladak), the seedling emergence was 79%.
